AC50 data for 33 compounds are collected here from PubChem BioAssay AID977621 (Broad Institute, 2014).

Structures are written as SMILES. Records with an inconclusive call do not appear. Calls of active or inactive are those of the source.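 How the source made its calls: active means Wild-type ribosome reporter drop at least double the humanized mutant ribosome reporter drop, growth loss under a set limit; inconclusive means no clear call, values can overlap the other calls; inactive means the rest.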

In the first test the test system is E. coli wild-type GFP strain growth, fluorescence, 24 h. The test can be described thus: wild-type E. coli growth inhibition versus H69 humanized strain – H69 mutant RFP, wild-type GFP, cherry-pick, dose response (AID 977621).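 Further: wild-type GFP and H69 mutant RFP strains grown together 50/50 in each well.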
Settings: not given
For the compound `CC(=O)N1c2c(cc(Br)cc2S(=O)(=O)N2CCCCC2)CC1C` (centres undefined), the AC50 was > 100 µM (inactive).

On to `O=C(COC(=O)c1ccc([N+](=O)[O-])o1)NC12CC3CC(CC(C3)C1)C2`, for which the AC50 was > 100 µM (inactive).

In the case of `Cc1cccc(CN2C(=O)c3ccccc3Sc3ccc(C(=O)O)cc32)c1`, the AC50 is > 100 µM (inactive).

Turning to `O=C(Nc1ccc(S(=O)(=O)N2CCCC2)cc1)c1ccc(OCC2CCCO2)cc1` (centres undefined), the AC50 is > 100 µM (inactive).

As for `CCN(C(=O)COC(=O)CCc1ccccc1)c1ccccc1`, the AC50 was > 100 µM (inactive).

For the compound `CCNC(=O)C1(C)CCCN(Cc2cccc3ccccc23)C1` (centres undefined), the AC50 is > 100 µM (inactive).

`C[C@@H]1CCCCO[C@@H](CN(C)C(=O)c2ccccc2)[C@H](C)CN([C@@H](C)CO)C(=O)c2cc(NC(=O)Cc3ccccc3)ccc2O1`: the AC50 was > 100 µM (inactive).

Regarding `O=C1NC(=O)C2(Cc3cc([N+](=O)[O-])ccc3N3CCN(C(=O)c4ccccc4)CC32)C(=O)N1` (centres undefined), the AC50 was > 100 µM (inactive).

For `O=C(CCc1nc2ccccc2s1)OCC(=O)c1ccc[nH]1`, the AC50 is > 100 µM (inactive).

Regarding `COc1ccccc1Cn1c(=S)[nH]c2ccc(F)cc2c1=O`, the AC50 is > 100 µM (inactive).

Turning to `NS(=O)(=O)c1cccc(NC(=O)c2cccc(-c3ccc(O)cc3)c2)c1`, the AC50 was > 100 µM (inactive).

For `CC(=O)Nc1ccc(NS(=O)(=O)c2ccc(Cl)s2)cc1`, the AC50 is > 100 µM (inactive).

On to `CN1C(=O)c2cc(NC(=O)c3cccc(F)c3)ccc2OC[C@H]2O[C@@H](CC(=O)N3CCc4ccccc4C3)CC[C@@H]21`, for which the AC50 was > 100 µM (inactive).

`COc1cc2nc(Nc3ccc(F)cc3)nc(N)c2cc1OC`: the AC50 is > 100 µM (inactive).

For `N#Cc1nc(Cc2ccccc2)oc1N1CCCC1`, the AC50 is > 100 µM (inactive).

Consider `COCCNc1cc(-c2ccccc2)nc2cc(-c3cccc(F)c3)nn12`, for which the AC50 is > 100 µM (inactive).

For the compound `CC1(C(=O)Nc2ccc3c(c2)OCCO3)CSCC(=O)N1CCOc1ccccc1` (centres undefined), the AC50 is > 100 µM (inactive).

Regarding `Cc1cc(CNC(=O)COc2ccc(C)c(C)c2)c2ccccc2n1`, the AC50 is > 100 µM (inactive).

In the case of `O=C1OCCC1Sc1nc2ccccc2c(=O)n1Cc1ccccc1` (centres undefined), the AC50 is > 100 µM (inactive).

With `Cc1sc2ncn(CC(=O)Nc3ccccc3F)c(=O)c2c1-c1ccccc1`, the AC50 was > 100 µM (inactive).

On to `Cc1cccc(OCc2nnc(SCC(=O)Nc3ncc(C)s3)o2)c1`, for which the AC50 is > 100 µM (inactive).

Staying with this test, now noted: E. coli mixed culture, 24 h; measured here: total growth OD600, test 2.
`O=C(COC(=O)CCC(=O)c1ccc(F)cc1)Nc1cccc(S(=O)(=O)N2CCCC2)c1` yielded an AC50 of over 100 µM.

In the case of `O=C(COC(=O)c1ccc([N+](=O)[O-])o1)NC12CC3CC(CC(C3)C1)C2`, the AC50 is over 100 µM.

For the compound `O=C1OC[C@@H]2CCCN2C(=O)[C@@H](CC(=O)N(CCO)Cc2ccccc2)C/C=C\C[C@H]1Cc1ccc(F)cc1`, the AC50 is over 100 µM.

Compound `O=c1c2ccccc2nc(SCc2ccccc2)n1CC1CCCO1` (centres undefined) gave an AC50 of 51.1 µM.

In turn, `CCN(C(=O)COC(=O)CCc1ccccc1)c1ccccc1` gave an AC50 of over 100 µM.

For the compound `Nc1ccccc1Sc1c[nH]c2ccccc12`, the concentration at half-maximal activity (AC50) is over 100 µM.

In turn, `O=C(COC(=O)C1CC1)Nc1nc(-c2ccc(F)c(F)c2)cs1` registered a concentration at half-maximal activity (AC50) of over 100 µM.

The compound `CCNC(=O)C1(C)CCCN(Cc2cccc3ccccc23)C1` (centres undefined) displayed an AC50 of over 100 µM.

As to `C[C@@H]1CCCCO[C@@H](CN(C)C(=O)c2ccccc2)[C@H](C)CN([C@@H](C)CO)C(=O)c2cc(NC(=O)Cc3ccccc3)ccc2O1`, the AC50 is over 100 µM.

In turn, `CC1Cc2cc(S(=O)(=O)N3CCN(c4cccc(Cl)c4)CC3)ccc2N1C(=O)C1CC1` (centres undefined) showed an AC50 of over 100 µM.

`CC(=O)c1ccc(OCC(=O)Nc2ccc3c(c2)CCC3)cc1` registered an AC50 of over 100 µM.

The compound `COc1ccc(OCC(O)CNS(=O)(=O)c2cccc(Cl)c2)cc1` (centres undefined) returned an AC50 of over 100 µM.

`CC1(C(=O)Nc2ccc3c(c2)OCCO3)CSCC(=O)N1CCOc1ccccc1` (centres undefined) gave an AC50 of over 100 µM.

Regarding `CCOc1ccccc1/C=C/c1cc(C(=O)O)c2ccccc2n1`, the AC50 was 35.3 µM.

In the case of `CN(C)S(=O)(=O)N1CCN(c2ccccc2Cl)CC1`, the AC50 was over 100 µM.

As to `COc1ccccc1C1CCN(C(=O)c2cccs2)CC1`, the AC50 was over 100 µM.

`Cc1cccc(OCc2nnc(SCC(=O)Nc3ncc(C)s3)o2)c1` had an AC50 of over 100 µM.

`O=C(Cc1ccc(Br)cc1)Nc1cccc(-c2cn3c(n2)SCC3)c1` displayed an AC50 of over 100 µM.

Usually AC50 stands for the concentration at which the activity in the assay is half-maximal.
